{
  "source": "the RepoRT retention time repository (doi:10.1038/s41597-019-0305-1)",
  "assay": "RP, Waters SunFire C18, 50 × 4.6 mm, 3.5 µm, 0.5 mL/min, estimated dead time 1.1 min; A: water + 0.1% formic acid; B: acetonitrile + 0.1% formic acid; gradient (min/%B) 0/5 7/100 8/100",
  "details": "stereoisomer not certain",
  "data": [
    {"molecule": "CC1C(=O)OC(CCCCCCCCCC(C)(C)C)C1C(=O)O", "note": "(stereo not drawn)", "values": [
      {"measurement": "LC retention time", "result": 8, "unit": "min"}
    ]},
    {"molecule": "Cc1cc(O)c(C=O)c(O)c1", "values": [
      {"measurement": "LC retention time", "result": 4.33, "unit": "min"}
    ]},
    {"molecule": "COc1cc(C)c(C(=O)Oc2cc(C)c(C(=O)O)c(O)c2C)c(O)c1C", "values": [
      {"measurement": "LC retention time", "result": 7.26, "unit": "min"}
    ]},
    {"molecule": "COc1cc(O)c2c(c1)C(=O)c1cc(CO)cc(O)c1C2=O", "values": [
      {"measurement": "LC retention time", "result": 5.36, "unit": "min"}
    ]},
    {"molecule": "Cc1cc(O)c(C)c2c1C(=O)Oc1c(C)c(O)c(C(=O)O)c(C)c1O2", "values": [
      {"measurement": "LC retention time", "result": 5.63, "unit": "min"}
    ]},
    {"molecule": "CCCc1cc(OC(=O)c2c(O)cc(OC)cc2CCC)cc(O)c1C(=O)O", "values": [
      {"measurement": "LC retention time", "result": 7.33, "unit": "min"}
    ]},
    {"molecule": "COc1cc(C)c(C)c(OC(=O)c2c(C)c(C=O)c(O)c(C=O)c2O)c1C", "values": [
      {"measurement": "LC retention time", "result": 6.73, "unit": "min"}
    ]},
    {"molecule": "CCC(C)C(NC(=O)c1ccccc1)C(=O)NC(COC(=O)c1ccccc1)C(C)C", "note": "(stereo not drawn)", "values": [
      {"measurement": "LC retention time", "result": 6.25, "unit": "min"}
    ]},
    {"molecule": "COCc1c(O)c(C(=O)O)c(C)c2c1OC(=O)c1c(C)cc(O)c(C=O)c1O2", "values": [
      {"measurement": "LC retention time", "result": 5.99, "unit": "min"}
    ]},
    {"molecule": "COc1cc(C)c(C(=O)Oc2c(C)c(C(=O)O)c(O)c(C=O)c2O)c(O)c1C(=O)O", "values": [
      {"measurement": "LC retention time", "result": 5.8, "unit": "min"}
    ]},
    {"molecule": "CC1=C(C(=O)O)C(CCCCCCCCCCCCC(C)CO)OC1=O", "note": "(stereo not drawn)", "values": [
      {"measurement": "LC retention time", "result": 6.93, "unit": "min"}
    ]},
    {"molecule": "Cc1cc(OC(=O)c2c(C)cc(O)cc2O)cc(O)c1C(=O)OCC(O)C(O)CO", "note": "(stereo not drawn)", "values": [
      {"measurement": "LC retention time", "result": 4.52, "unit": "min"}
    ]},
    {"molecule": "CC(=O)OCC1OC(Oc2c(C)c(O)c3c(=O)cc(C)oc3c2C)C(O)C(O)C1O", "note": "(stereo not drawn)", "values": [
      {"measurement": "LC retention time", "result": 4.2, "unit": "min"}
    ]},
    {"molecule": "CCCc1cc(OC)cc(O)c1C(=O)O", "values": [
      {"measurement": "LC retention time", "result": 5.25, "unit": "min"}
    ]},
    {"molecule": "CCCCCC(=O)Cc1cc(OC)c(O)c2c1C(=O)Oc1cc(O)c(C(=O)O)c(CCCCC)c1O2", "values": [
      {"measurement": "LC retention time", "result": 6.95, "unit": "min"}
    ]},
    {"molecule": "CCCCCc1cc(OC(=O)c2c(O)cc(O)cc2CCCCC)cc(O)c1C(=O)O", "values": [
      {"measurement": "LC retention time", "result": 7.28, "unit": "min"}
    ]},
    {"molecule": "COC(=O)C(CC(C)C)NC(=O)C(=C1OC(=O)C(c2ccccc2)=C1O)c1ccccc1", "note": "(stereo not drawn)", "values": [
      {"measurement": "LC retention time", "result": 7.82, "unit": "min"}
    ]},
    {"molecule": "Cc1cc(O)c2c(c1)C(=O)c1c(c(O)cc(O)c1-c1c(O)cc(O)c3c1C(=O)c1cc(C)cc(O)c1C3=O)C2=O", "values": [
      {"measurement": "LC retention time", "result": 6.57, "unit": "min"}
    ]},
    {"molecule": "Cc1cc(O)c(C=O)c2c1C(=O)Oc1c(COC(=O)C=CC(=O)O)c(O)c(C(=O)O)c(C)c1O2", "values": [
      {"measurement": "LC retention time", "result": 6.04, "unit": "min"}
    ]},
    {"molecule": "CCCCCC(=O)Cc1cc(O)cc2c1C(=O)Oc1cc(O)c(C(=O)O)c(CCCCC)c1O2", "values": [
      {"measurement": "LC retention time", "result": 7.13, "unit": "min"}
    ]},
    {"molecule": "COc1cc(C)c(C(=O)Oc2cc(C)c(C(=O)O)c(O)c2)c(O)c1C", "values": [
      {"measurement": "LC retention time", "result": 6.54, "unit": "min"}
    ]},
    {"molecule": "CCCCCc1cc2cc(O)cc(O)c2c(=O)o1", "values": [
      {"measurement": "LC retention time", "result": 6.08, "unit": "min"}
    ]},
    {"molecule": "COc1cc(C)c(C(=O)Oc2cc(C)c(C(=O)O)c(O)c2)c(O)c1", "values": [
      {"measurement": "LC retention time", "result": 6, "unit": "min"}
    ]},
    {"molecule": "COC(=O)c1c(C)cc(OC(=O)c2c(C)cc(O)c(C=O)c2O)c(C)c1O", "values": [
      {"measurement": "LC retention time", "result": 7.14, "unit": "min"}
    ]},
    {"molecule": "O=C1NC(c2ccccc2)CC(=O)N2CCCC2C(=O)NC(c2ccccc2)CC(=O)N2CCCC12", "note": "(stereo not drawn)", "values": [
      {"measurement": "LC retention time", "result": 5.08, "unit": "min"}
    ]},
    {"molecule": "Cc1cc(O)c2c(c1)oc1cc(O)cc(C)c12", "values": [
      {"measurement": "LC retention time", "result": 7.4, "unit": "min"}
    ]},
    {"molecule": "COC(=O)C(=C1OC(=O)C(c2ccccc2)=C1O)c1ccccc1OC", "values": [
      {"measurement": "LC retention time", "result": 6.75, "unit": "min"}
    ]},
    {"molecule": "COC(=O)c1c(C)c(C)c(OC(=O)c2c(C)c(C)c(O)c(C=O)c2O)c(C)c1O", "values": [
      {"measurement": "LC retention time", "result": 7.84, "unit": "min"}
    ]},
    {"molecule": "COc1cc(O)c2c(c1)C(=O)c1c(O)c(C)cc(O)c1C2=O", "values": [
      {"measurement": "LC retention time", "result": 4.75, "unit": "min"}
    ]},
    {"molecule": "CC(=O)OC1C(C)C(C)OC2(C(C)C3OC(=O)C2(C)C(=O)C3C)C1C", "note": "(stereo not drawn)", "values": [
      {"measurement": "LC retention time", "result": 5.84, "unit": "min"}
    ]},
    {"molecule": "Cc1cc(=O)c2c(O)c(C)c(O)cc2o1", "values": [
      {"measurement": "LC retention time", "result": 4.52, "unit": "min"}
    ]},
    {"molecule": "CCOCc1c(O)c(C(=O)O)c(C)c2c1OC(=O)c1c(C)cc(O)c(C=O)c1O2", "values": [
      {"measurement": "LC retention time", "result": 7.27, "unit": "min"}
    ]},
    {"molecule": "CCCCCc1cc(OC(=O)c2c(O)cc(OC)cc2CC(=O)CCC)cc(O)c1C(=O)O", "values": [
      {"measurement": "LC retention time", "result": 7.28, "unit": "min"}
    ]},
    {"molecule": "CCCCCC(=O)Cc1cc(O)cc2c1C(=O)Oc1cc(O)c(C(=O)O)c(CC(=O)CCCCC)c1O2", "values": [
      {"measurement": "LC retention time", "result": 7.64, "unit": "min"}
    ]},
    {"molecule": "COc1cc(C)c2c(c1C=O)Oc1c(c(CO)c(O)c3c1C(O)OC3=O)OC2=O", "note": "(stereo not drawn)", "values": [
      {"measurement": "LC retention time", "result": 4.06, "unit": "min"}
    ]},
    {"molecule": "CCCCCc1cc(O)c(OC(=O)c2c(CCC)cc(OC)cc2OC)c(O)c1C(=O)O", "values": [
      {"measurement": "LC retention time", "result": 6.84, "unit": "min"}
    ]},
    {"molecule": "COc1cc(C)c(C(=O)O)c(O)c1C", "values": [
      {"measurement": "LC retention time", "result": 5.09, "unit": "min"}
    ]},
    {"molecule": "Cc1cc(=O)c2c(O)c3c(cc2o1)C(=O)C(=O)C=C3O", "values": [
      {"measurement": "LC retention time", "result": 3.87, "unit": "min"}
    ]},
    {"molecule": "COc1cc(C)c2c(=O)c3c(O)cc(OC)cc3oc2c1", "values": [
      {"measurement": "LC retention time", "result": 6.94, "unit": "min"}
    ]},
    {"molecule": "CCCCCc1cc(OC(=O)c2c(O)cc(OC)cc2CCC(=O)CC)cc(O)c1C(=O)O", "values": [
      {"measurement": "LC retention time", "result": 7.31, "unit": "min"}
    ]},
    {"molecule": "COC12CC(=O)C(C(C)=O)=C(O)C1(C)c1c(O)c(C)c(O)c(C(C)=O)c1O2", "note": "(stereo not drawn)", "values": [
      {"measurement": "LC retention time", "result": 7.08, "unit": "min"}
    ]},
    {"molecule": "O=C(NC(Cc1ccccc1)C(=O)O)C(=C1OC(=O)C(c2ccccc2)=C1O)c1ccccc1", "note": "(stereo not drawn)", "values": [
      {"measurement": "LC retention time", "result": 7.27, "unit": "min"}
    ]},
    {"molecule": "COc1cc2oc(C)cc(=O)c2c(O)c1COC(=O)C=C(C)CC(=O)O", "values": [
      {"measurement": "LC retention time", "result": 5.06, "unit": "min"}
    ]}
  ]
}
